The record followed here is ChEMBL document CHEMBL2163311, “Anti-herpes simplex virus efficacies of 2-aminobenzamide derivatives as novel HSP90 inhibitors” (Bioorg Med Chem Lett, 2012).

A word on the CC50: it is the concentration that lowers cell viability or growth by half. The EC50 is the concentration that produces a half-maximal response.

The source made the active and inactive calls. No cut-off for these calls is given here. A value given as a limit tells only on which side of the number the result lay.

A short description of data set [1]: Cytotoxicity against human MRC5 cells after 48 hrs by MTT assay. It is filed as cell-based. For orientation: Formazan colour is commonly taken as a measure of viable cells.
The subject of data set [2] is Human alphaherpesvirus 1. The experiment in a line: Antiviral activity against HSV1 strain F ATCC VR733 infected in african green monkey Vero cells assessed as inhibition of cytopathic effect at 4 uM after 48 hrs by plaque reduction assay. It is filed as functional, organism-based.
Data set [3] relates to Human alphaherpesvirus 1. The experiment in a line: Antiviral activity against HSV1 infected herpes simplex keratitis New zealand rabbit model assessed as reduction in viral DNA level in corneal sample at 0.025% to 0.1% administered twice daily as gel 24 hrs post inoculation measured on day 9 post infection by RT-PCR analysis. It is filed as functional, organism-based. The conditions noted are these: Cornea.

Data set [4] relates to Human alphaherpesvirus 1. The experiment in a line: Antiviral activity against HSV1 infected herpes simplex keratitis New zealand rabbit model at 0.025% to 0.1% administered twice daily as gel 24 hrs post inoculation measured on day 9 post infection. It is filed as functional, organism-based.
Data set [5] can be described thus: Selectivity index, ratio of CC50 for african green monkey Vero cells to EC50 for HSV2 strain 333 infected in african green monkey Vero cells.
Data set [6] can be described thus: Cytotoxicity against african green monkey Vero cells assessed as inhibition of cell viability after 48 hrs by MTT assay. It is filed as cell-based. The conditions noted are these: chlorocebus sabaeus.
Data set [7] relates to Human alphaherpesvirus 2. The experiment in a line: Antiviral activity against HSV2 strain 333 infected in african green monkey Vero cells assessed as inhibition of cytopathic effect after 48 hrs by plaque reduction assay. It is filed as functional, cell-based. Conditions: for EC50: Human alphaherpesvirus 2, strain 333, Vero. (In general: Damage to the host cells serves as the signal in cytopathic effect assays.)

Data set [8] relates to Human alphaherpesvirus 1. Kind of data set: Antiviral activity against HSV1 infected herpes simplex keratitis New zealand rabbit model assessed as reduction in viral DNA level in corneal sample compound administered twice daily as gel 24 hrs post inoculation measured on day 9 post infection by RT-PCR analysis. It is filed as functional, organism-based. The conditions noted are these: Cornea.

Data set [9] can be described thus: Selectivity index, ratio of CC50 for african green monkey Vero cells to EC50 for HSV1 strain F ATCC VR733 infected in african green monkey Vero cells. The conditions noted are these: read-out: Ratio CC50/EC50. It is filed as toxicity, cell-based.
Data set [10] deals with Human alphaherpesvirus 2. The experiment in a line: Antiviral activity against HSV2 strain 333 infected in african green monkey Vero cells assessed as inhibition of cytopathic effect at 4 uM after 48 hrs by plaque reduction assay. It is filed as functional, cell-based.
For data set [11], the system named is Human alphaherpesvirus 1. The experiment in a line: Antiviral activity against HSV1 infected herpes simplex keratitis New zealand rabbit model assessed as reduction in corneal epithelia involvement score at 0.025% to 0.1% administered twice daily as gel 24 hrs post inoculation measured on day 9 post infection. It is filed as functional, organism-based. The conditions noted are these: Cornea.

The test system of data set [12] is Human alphaherpesvirus 1. Kind of data set: Antiviral activity against HSV1 strain F ATCC VR733 infected in african green monkey Vero cells assessed as inhibition of cytopathic effect after 48 hrs by plaque reduction assay. It is filed as functional, organism-based. Conditions: for EC50: Human alphaherpesvirus 1, strain F ATCC VR733, Vero.
The test system of data set [13] is Human alphaherpesvirus 1. The experiment in a line: Antiviral activity against HSV1 strain F ATCC VR733 infected in african green monkey Vero cells assessed as inhibition of cytopathic effect at 3.5 uM after 48 hrs by plaque reduction assay. It is filed as functional, organism-based.
For data set [14], the system named is Human alphaherpesvirus 2. The experiment in a line: Antiviral activity against HSV2 strain 333 infected in african green monkey Vero cells assessed as inhibition of cytopathic effect at 3.5 uM after 48 hrs by plaque reduction assay. It is filed as functional, cell-based.
Data set [15] has as its system Human alphaherpesvirus 1. Kind of data set: Antiviral activity against HSV1 infected herpes simplex keratitis New zealand rabbit model at 0.1% administered twice daily as gel 24 hrs post inoculation measured on day 9 post infection. It is filed as functional.
Data set [16] relates to Human alphaherpesvirus 1. The experiment in a line: Antiviral activity against HSV1 infected herpes simplex keratitis New zealand rabbit model at 0.025% administered twice daily as gel 24 hrs post inoculation measured on day 9 post infection. It is filed as functional.

With `Cc1cn(-c2ccc(C(N)=O)c(N[C@H]3CC[C@H](O)CC3)c2)c2c1C(=O)CC(C)(C)C2`, the CC50 at 48 h in [1] is 24.9 µM; in [6], 12.9 µM. In addition, the inhibition result with Human alphaherpesvirus 1 [2] and in the data set on Human alphaherpesvirus 2 [10] was “Active” throughout. The outcome with Human alphaherpesvirus 1 [3], in the data set on Human alphaherpesvirus 1 [4] and in the data set with Human alphaherpesvirus 1 [11] was Active. Also, the “Ratio CC50/EC50” value in data set [5] stood at 12.94. Besides, the inhibition result in the data set on Human alphaherpesvirus 2 [7] and in the data set on Human alphaherpesvirus 1 [12] was “Dose-dependent effect” throughout. Besides, the values for the 50% effective concentration (EC50) with Human alphaherpesvirus 2 [7] and in the data set with Human alphaherpesvirus 1 [12] were 1 µM and 1.03 µM, respectively. Also, the Activity entry in the data set on Human alphaherpesvirus 1 [8] is “Dose-dependent effect”. Also, the selectivity ratio in data set [9] turned out to be 12.6.
For the compound `Nc1nc2c(ncn2COCCO)c(=O)[nH]1` [ACYCLOVIR], the inhibition entry in the data set with Human alphaherpesvirus 1 [13] and with Human alphaherpesvirus 2 [14] was “Active” in each case. Also, the outcome with Human alphaherpesvirus 1 [3] and in the data set on Human alphaherpesvirus 1 [11] was Active. The “Ratio CC50/EC50” value in data set [5] is reported as greater than 106.95. Moreover, the 50% cytotoxic concentration (CC50) at 48 h in [6] was greater than 200 µM. Also, the EC50 stood at 1.87 µM in the data set with Human alphaherpesvirus 2 [7] and 1.2 µM in the data set on Human alphaherpesvirus 1 [12]. For the same compound, the Activity result in the data set with Human alphaherpesvirus 1 [8] was “Dose-dependent effect”. The selectivity ratio in [9] was greater than 167.
Regarding `CC1(C)CC(=O)c2c(C(F)(F)F)nn(-c3ccc(C(N)=O)c(N[C@H]4CC[C@H](O)CC4)c3)c2C1` [SNX-2112], the CC50 at 48 h was found to be 21.3 µM in data set [1] and 13.3 µM in [6]. Moreover, the inhibition result in the data set on Human alphaherpesvirus 1 [2] and in the data set with Human alphaherpesvirus 2 [10] was “Active” in each case. Further, the outcome in the data set on Human alphaherpesvirus 1 [3], with Human alphaherpesvirus 1 [4] and in the data set with Human alphaherpesvirus 1 [11] was Active. In data set [5], the “Ratio CC50/EC50” value is listed as 7.21. Further, the inhibition entry in the data set with Human alphaherpesvirus 2 [7] and with Human alphaherpesvirus 1 [12] was “Dose-dependent effect” throughout. Also, the half-maximal effective concentration (EC50) in the data set with Human alphaherpesvirus 2 [7] came out at 1.85 µM; in the data set with Human alphaherpesvirus 1 [12] it was 2.26 µM. For the same compound, the Activity entry with Human alphaherpesvirus 1 [8] is “Dose-dependent effect”. In addition, the selectivity ratio in data set [9] amounted to 5.9.
With `Cc1nn(-c2ccc(C(N)=O)c(N[C@H]3CC[C@H](O)CC3)c2)c2c1C(=O)CC(C)(C)C2`, the CC50 at 48 h in [1] turned out to be 54.1 µM; in data set [6], 27.1 µM. For the same compound, the inhibition result with Human alphaherpesvirus 1 [2] and in the data set on Human alphaherpesvirus 2 [10] was “Active” each time. Further, the Activity in the data set with Human alphaherpesvirus 1 [15] is 83.76%; in the data set with Human alphaherpesvirus 1 [8], “Dose-dependent effect”; in the data set on Human alphaherpesvirus 1 [16], 74.23%. Further, the outcome with Human alphaherpesvirus 1 [3], in the data set on Human alphaherpesvirus 1 [4] and with Human alphaherpesvirus 1 [11] was Active. Moreover, the “Ratio CC50/EC50” value in data set [5] is 15.46. Besides, the inhibition entry with Human alphaherpesvirus 2 [7] and with Human alphaherpesvirus 1 [12] was “Dose-dependent effect” each time. Further, the 50% effective concentration (EC50) with Human alphaherpesvirus 2 [7] amounted to 1.75 µM; in the data set on Human alphaherpesvirus 1 [12] it was 2.24 µM. For the same compound, in data set [9], the selectivity ratio came to 12.1.
